Laboratory results from patent publication US6303612A, “Derivatives of hydroxyphenylsulfanylbenzoic and hydroxphenylsulfanylarylacetic acids” (Leciva, A.S., priority 1998, dated 2001).
In brackets after ≈: the same amount, converted by molar mass. Where two headings read alike, the source gives them in different places.

Experiments:
[1] = test system: Wistar-Han rats; assay: Inhibition of carrageenan edema; type: in vivo; conditions: Rattus norvegicus, dose 100 mg/kg; read-out: CE: inhibition of carrageenan-induced edema, % of inh.
[2] = test system: rats; assay: Inhibition of carrageenan-induced pleuritis in rats; type: in vivo; conditions: Rattus norvegicus, po, 4 h, dose 100 mg/kg, oral, values with mark n: p > 0.05
Method: Inhibition of Carrageenan-induced Pleuritis in Rats
(Hidaka T. J.: Pharm. Pharmacol. 38, 242 (1986) 1 ml of 0.5% carrageenan solution in saline was administered intrapleurally to experimental animals under mild ether anesthesia. Test drugs were administered in single oral dose 1 h before carrageenan injection, 4 h following the carrageenan application the rats were killed and exudate was withdrawn from opened pleural cavity. The volume of exudate, its cellularity and total cell number were determined.

[3] = molecular target: T1, LTD4 receptor (Cavia porcellus, UniProt Q2NNR5); assay: LTD4 receptor binding study; conditions: 3H-LTD4, guinea-pig lung membranes; for inhibition at 100 µM: read-out: Inh. of LTD4 rec. binding, %; for IC50: read-out: Inh. of LTD4 rec. binding, IC50
T1 construct: The membrane fraction was prepared from male guinea-pig lungs; from tissue; host or cells: male guinea-pig lung membranes
T1 sequence (Q2NNR5 1-340): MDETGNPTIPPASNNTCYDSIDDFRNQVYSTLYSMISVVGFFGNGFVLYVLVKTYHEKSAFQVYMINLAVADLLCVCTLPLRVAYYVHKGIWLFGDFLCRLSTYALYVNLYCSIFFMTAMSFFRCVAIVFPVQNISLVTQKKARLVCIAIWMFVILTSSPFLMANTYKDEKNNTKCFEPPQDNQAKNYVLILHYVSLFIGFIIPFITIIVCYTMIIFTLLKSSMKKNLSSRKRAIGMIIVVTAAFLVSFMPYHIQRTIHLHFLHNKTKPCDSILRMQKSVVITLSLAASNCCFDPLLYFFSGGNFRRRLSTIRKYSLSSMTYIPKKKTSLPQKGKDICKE
Method: LTD4 Receptor Binding Study
This study was performed according to the method of Burns and coworkers (Burns R. F. et al.: Life Sci. 33, 645 (1983)). The membrane fraction was prepared from male guinea-pig lungs, and 4 mg of this fraction were incubated with 0.4 nM ^3 H-LTD4 for 60 min at 25° C. in 100 μl of the incubated mixture. The nonspecific binding was determined in the presence of 0.1 μM LTD4. The filtration of the membranes, washing, and radioactivity measurement were as above.

[4] = test system: bronchospasm induced by ovalbumin; assay: Inhibition of bronchospasm induced by ovalbumin; type: in vivo; conditions: for Inhibition of bronchospasm induced by ovalbumin, % of inhibition: dose 100 mg/kg
Method: (§1) Inhibition of Allergic Bronchospasm Induced by […] (Compound 48/80 or Ovalbumin, Respectively)
(§2) The modified method of Kreutner W. et al (Krelutner W. et al.: Agents Actions 28, 253 (1989)) was used. Bronchoconstrictioin was induced by intravenous injection of 1 μg/kg LTD4 (3 mg/kg of compound […] or 0.35 mg/kg of ovalbumin, respectively). In the case of oval-bumin, the animals were senzitized by intraperitoneal injection of ovalbumin (100 mg/kg) 14 days before induction. The compounds tested were applied 5 min before the administration of the inductor; the vehiculum used for the application of compound tested was administered to the control group of animals. The tracheal pressure was determined in the intervals of 2, 4 and 10 minutes after induction. The effect was expressed in percentage inhibition of bronchospasm relative to the untreated control.

[5] = test system: bronchospasm induced by LTD4; assay: Inhibition of bronchospasm induced by LTD4; type: in vivo; conditions: for Inhibition of bronchospasm induced by LTD4, % of inhibition: dose 100 mg/kg
Method: as §1, §2

[6] = molecular target: LTB4 receptor (Cavia porcellus, UniProt H0VYV8); assay: LTB4 receptor binding study; conditions: 3H-LTB4, guinea-pig spleen membranes; for inhibition at 20 µM: read-out: Inh. of LTB4 rec. binding, %; for IC50: read-out: Inh. of LTB4 rec. binding, IC50
Method: LTB4 Receptor Binding Study
A slightly modified method of Cheng and coworkers (Cheng J. B. et al.: J. Pharm. Expl. Ther. 236, 126 (1986)) was used. The membrane fraction was prepared from male guinea-pig spleen; 2 mg of membranes were incubated with 0.3 nM ^3 H-LTB4 at 25° C. for 30 min in 100 μl of the incubated mixture. The nonspecific binding was determined in the presence of 0.1 μM LTB4. The membranes were filtered though Whatman GF/C paper and washed triply with buffer. The radioactivity was measured by liquid scintillation spectrometry, and the specific binding of ^3 H-LTB4 to the receptor was determined.

[7] = test system: male mice; assay: Inhibition of arachidonic acid-induced ear inflammation in mice; type: in vivo; conditions: Mus musculus, po, 1 h
Method: Inhibition of Arachidonic Acid-induced Ear Inflammation in Mice (Opas E. E. et al.: J. Invest. Dermatol. 84, 253 (1985) Ear inflammation was induced in male mice by 20 μl of arachidonic acid dissolved in acetone (concentration 100 mg/ml). The mice were sacrificed 1 h after application of arachidonic acid and the ears were cut off by standard means. The other, vehicle-treated ear of the same animal served as a control. The degree of ear hyperemia and the weight of ear lobes were evaluated. Test compounds were administered orally 1 h before the induction of inflammation.

[8] = test system: LTB4 production in rat polymorphonuclear cells; assay: Ex vivo inhibition of LTB4 production (LTB4 biosynthesis); type: cell-based; conditions: for IC50: Rattus norvegicus, read-out: Inh. of LTB4 biosynth., IC50; for Inh. of LTB4 biosynth., %: at 30 μg (%/μg)
Method: Ex vivo Inhibition of LTB4 Production The production of LTB4 was determined in rat polymorphonuclear cells from pleural exudate elicited by heat-activated rat serum (Palmer R. M. J., Salmon J. A.: Immunology 50, 65 (1983)). The cells were stimulated with the Ca ionophore A 23187 (Sigma) and incubated with various concentrations of the drugs tested. The sample containing only buffer was used for the determination of unaffected biosynthesis; the complete inhibition was measured in a sample with 100 μg of NDGA in 1 ml. LTB4 was determined in supernatant using a commercial RIA kit (Amersham).

[9] = test system: peroxidation of lipids from the hepatic cells membranes; assay: Antioxidant effect in vitro; type: biochemical; conditions: at 100 μg
Source text: Antioxidant Effect in vitro
The end-product, malonic dialdehyde, was transformed to coloured complex with thiobarbituric acid and determined spectrophotometrically. The antioxidant effect was expressed in % of peroxidation inhibition in the presence of the compound tested in comparison to a control sample.

[10] = read-out: Experimental pleuritis, A: volume of exudate in pleural cavity, % of inh.
[11] = read-out: Experimental pleuritis, B: number of cells, % of inh.
[12] = read-out: Experimental pleuritis, C: cellularity in a volume unit, % of inh.
[13] = values with mark n: p > 0.05, read-out: Ear edema, D: edema of ear lobe, % of inh.
[14] = values with mark n: p > 0.05, read-out: Ear edema, E: hyperemia of ear lobe, % of inh.

LTB4 receptor, sequence (H0VYV8 1-348): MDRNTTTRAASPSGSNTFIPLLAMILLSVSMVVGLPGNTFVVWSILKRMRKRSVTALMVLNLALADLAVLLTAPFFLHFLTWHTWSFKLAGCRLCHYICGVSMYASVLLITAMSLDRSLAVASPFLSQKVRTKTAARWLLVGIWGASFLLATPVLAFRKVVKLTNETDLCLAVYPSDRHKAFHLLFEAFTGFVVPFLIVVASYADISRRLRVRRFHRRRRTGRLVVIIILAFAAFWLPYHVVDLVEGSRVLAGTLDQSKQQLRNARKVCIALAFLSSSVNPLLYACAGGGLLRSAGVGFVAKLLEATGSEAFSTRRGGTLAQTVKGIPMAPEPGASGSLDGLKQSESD

inhibition at 100 µM [3] [%] | inhibition at 20 µM [6] [%] | IC50 [8] [µg/mL] | IC50 [3] [µM] | IC50 [6] [µM] | SMILES | inhibition in vivo at 100 mg/kg [1] [%] | inhibition in vivo at 100 mg/kg [2, 10] [%] | inhibition in vivo at 100 mg/kg [2, 11] [%] | inhibition in vivo at 100 mg/kg [2, 12] [%] | inhibition in vivo at 100 mg/kg ([5]; 4 min) [%] | inhibition in vivo at 200 mg/kg [7, 13] [%] | inhibition in vivo at 200 mg/kg [7, 14] [%] | Inh. of LTB4 biosynth., % [8] [%] | Antiox. effect, % of peroxidation inhibition [9] [%] | further results
7 | 28 | 0.17 (≈ 0.719 µM) | – | – | CC(c1cc2ccccc2s1)N(O)C(N)=O (stereo not shown) [Zileuton, reference compound] | 46 | 36 | 49 | 20 | 54 | 9 | 13 | 100 | – | inhibition in vivo at 100 mg/kg ([4]; 2 min): 23%; inhibition in vivo at 100 mg/kg ([4]; 4 min): 28%; inhibition in vivo at 100 mg/kg ([4]; 10 min): 50%; inhibition in vivo at 100 mg/kg ([5]; 2 min): 10%; inhibition in vivo at 100 mg/kg ([5]; 10 min): 75%
– | – | – | – | – | CON1CC/C(=C\c2cc(C(C)(C)C)c(O)c(C(C)(C)C)c2)C1=O [E 5110, reference compound] | – | – | – | – | – | – | – | – | – | Inhibition of bronchospasm induced by ovalbumin, % of inhibition ([4]; 2 min): 74%; Inhibition of bronchospasm induced by ovalbumin, % of inhibition ([4]; 4 min): 71%; Inhibition of bronchospasm induced by ovalbumin, % of inhibition ([4]; 10 min): 69%; Inhibition of bronchospasm induced by LTD4, % of inhibition ([5]; 2 min): 45%; Inhibition of bronchospasm induced by LTD4, % of inhibition ([5]; 4 min): 55%; Inhibition of bronchospasm induced by LTD4, % of inhibition ([5]; 10 min): 58%
97 | 65 | 0.05 (≈ 0.104 µM) | 15.1 | 9.6 | CCCc1c(OCCCOc2cccc(Sc3ccc(C(=O)O)cc3)c2)ccc(C(C)=O)c1O [Compound 5, 4-(3-(3-(4-Acetyl-3-hydroxy-2-propylphenoxy)propoxy)phenylsulfanyl)benzoic Acid] | 14 | 10 | 46 | 61 | 16 | 1 | 0 | 100 | 75 | –
86 | 39 | 0.08 (≈ 0.19 µM) | 1.7 | 30.1 | O=C(O)c1ccccc1Sc1ccc(OCc2ccc3cc(Cl)ccc3n2)cc1 [Compound 21] | 18 | 15 | 12 | 4 | – | 7 | 3 | 100 | 0 | –
71 | 19 | – | 37.5 | – | CCCc1c(OCCCOc2ccc(Sc3ccccc3CC(=O)O)cc2)ccc(C(C)=O)c1O [Compound 25, 2-(4-(3-(4-Acetyl-3-hydroxy-2-propylphenoxy)propoxy)phenylsulfanyl)phenylacetic Acid] | 7 | 4 | 38 | 44 | – | 20 | 16 | 100 | 23 | –
97 | 50 | 0.48 (≈ 0.999 µM) | 19 | 20 | CCCc1c(OCCCOc2ccc(Sc3ccc(C(=O)O)cc3)cc2)ccc(C(C)=O)c1O [Compound 3, 4-(4-(3-(4-Acetyl4-3-hydroxy-2-propylphenoxy)propoxy)phenylsulfanyl)benzoicAcid] | 32 | 2 | 27 | 28 | – | 8 | 5 | 100 | 33 | –
95 | 50 | 28 (≈ 69.7 µM) | 0.6 | 24 | O=C(O)Cc1ccccc1Sc1ccc(OCc2ccc3ccccc3n2)cc1 [Compound 29, 2-(4-(Quinoline-2-ylmethoxy)phenylsulfanyl)phenylacetic Acid] | 52 | 3 | 27 | 25 | – | 2 | 22 | 44 | 0 | –

SMILES | inhibition at 100 µM [3] [%] | inhibition at 20 µM [6] [%] | IC50 [8] [µg/mL] | IC50 [3] [µM] | IC50 [6] [µM] | inhibition in vivo at 100 mg/kg [1] [%] | inhibition in vivo at 100 mg/kg [2, 10] [%] | inhibition in vivo at 100 mg/kg [2, 11] [%] | inhibition in vivo at 100 mg/kg [2, 12] [%] | inhibition in vivo at 100 mg/kg ([5]; 4 min) [%] | inhibition in vivo at 200 mg/kg [7, 13] [%] | inhibition in vivo at 200 mg/kg [7, 14] [%] | Inh. of LTB4 biosynth., % [8] [%] | Antiox. effect, % of peroxidation inhibition [9] [%] | further results
CCCc1c(OCCCCOc2cccc(Sc3ccc(C(=O)O)cc3)c2)ccc(C(C)=O)c1O [Compound 8, 4-(3-(4-(4-Acetyl-3-hydroxy-2-propylphenoxy)butoxy)phenylsulfanyl)benzoic Acid] | 69 | 100 | 0.52 (≈ 1.05 µM) | 39.3 | 3.7 | 24 | 7 | 18 | 11 | 98 | 1 | 9 | 100 | 22 | –
CCCc1c(OCCCCOc2ccc(Sc3ccc([N+](=O)[O-])cc3C(=O)O)cc2)ccc(C(C)=O)c1O [Compound 10, 2-(4-(4-(4-Acetyl-3-hydroxy-2-propylphenoxy)butoxy)phenylsulfanyl)-5-nitrobenzoic Acid] | 89 | 66 | – | 15.2 | 13 | 22 | 14 | 31 | 19 | – | 20 | 2 | 100 | 14 | –
